The values below come from patent publication US20240262826A1, “WILD TYPE KIT INHIBITORS” (Blueprint Medicines Corporation, priority 2022, published 2024).

As a reminder, the IC50 is the concentration needed to halve the response being measured.

wild type c-kit, sequence (P10721 26-976): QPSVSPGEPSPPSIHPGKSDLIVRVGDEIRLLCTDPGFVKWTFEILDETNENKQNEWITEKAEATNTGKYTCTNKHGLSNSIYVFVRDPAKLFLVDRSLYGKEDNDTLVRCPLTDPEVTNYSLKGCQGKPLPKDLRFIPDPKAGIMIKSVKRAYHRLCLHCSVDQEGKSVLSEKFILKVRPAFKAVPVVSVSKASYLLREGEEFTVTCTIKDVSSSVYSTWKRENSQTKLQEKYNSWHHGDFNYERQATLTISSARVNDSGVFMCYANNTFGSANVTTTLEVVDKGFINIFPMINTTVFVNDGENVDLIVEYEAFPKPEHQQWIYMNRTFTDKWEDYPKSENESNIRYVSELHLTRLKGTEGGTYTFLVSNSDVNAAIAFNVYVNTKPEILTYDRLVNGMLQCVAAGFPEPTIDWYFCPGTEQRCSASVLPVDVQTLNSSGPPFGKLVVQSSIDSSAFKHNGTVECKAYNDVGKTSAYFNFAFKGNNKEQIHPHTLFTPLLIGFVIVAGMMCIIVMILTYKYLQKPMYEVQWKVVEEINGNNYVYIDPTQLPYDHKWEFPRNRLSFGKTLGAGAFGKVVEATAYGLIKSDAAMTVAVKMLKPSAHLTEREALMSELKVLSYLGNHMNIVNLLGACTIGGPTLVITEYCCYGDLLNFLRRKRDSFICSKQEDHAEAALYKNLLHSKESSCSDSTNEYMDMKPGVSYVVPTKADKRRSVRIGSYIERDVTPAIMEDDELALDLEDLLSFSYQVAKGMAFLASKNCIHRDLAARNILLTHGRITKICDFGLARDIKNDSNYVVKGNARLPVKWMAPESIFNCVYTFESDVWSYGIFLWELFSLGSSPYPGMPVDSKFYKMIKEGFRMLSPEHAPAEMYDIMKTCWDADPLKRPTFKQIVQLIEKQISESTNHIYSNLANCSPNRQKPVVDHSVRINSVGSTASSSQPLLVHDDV

The target of this assay is wild type c-kit (Homo sapiens (Human), UniProt P10721). Put plainly: PathScan phospho c-kit (Tyr719) sandwich ELISA in SCF-stimulated M-07e cells (pKIT assay). In kind it is cell-based. Conditions: ELISA assay (values not marked *). The method, boiled down:
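Tyr719-phosphorylated c-kit was measured by colorimetric (TMB) sandwich ELISA in lysates of M-07e cells. Cells were starved 4 h without serum or GM-CSF, dosed 60 min at 37 °C with compound (8 points, duplicate, 0.25% DMSO), and stimulated 10 min with human SCF (500 ng/mL as added). IC50 values came from 4-parameter logistic regression.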
The compound `Nc1ccn2ncc(C(=O)Nc3cc(-c4nnn(CC5CC5(F)F)n4)ccc3Cl)c2c1` (centres unmarked) [Example 27, 5-amino-N-(2-chloro-5-(2-((2,2-difluorocyclopropyl)methyl)-2H-tetrazol-5-yl)phenyl)pyrazolo[1,5-a]pyridine-3-carboxamide] had an IC50 of 19.3 nM. That is a double-digit nanomolar value.

For the compound `Cc1ccc(-c2nnn(C3CC(F)(F)C3)n2)cc1NC(=O)c1cnn2ccc(N3CC(CO)C3)cc12` [Example 103, N-(5-(2-(3,3-difluorocyclobutyl)-2H-tetrazol-5-yl)-2-methylphenyl)-5-(3-(hydroxymethyl)azetidin-1-yl)pyrazolo[1,5-a]pyridine-3-carboxamide], the 50% inhibitory concentration (IC50) is 2.4 nM.

Regarding `COC(=O)N1CC(c2cnn(-c3ccc(C)c(NC(=O)c4cnn5ccc(N6CCN(C7COC7)CC6)cc45)c3)n2)C1` [Example 83, methyl 3-(2-(4-methyl-3-(5-(4-(oxetan-3-yl)piperazin-1-yl)pyrazolo[1,5-a]pyridine-3-carboxamido)phenyl)-2H-1,2,3-triazol-4-yl)azetidine-1-carboxylate], the IC50 is 50.4 nM.

`COCCOCCS(=O)(=O)N1CC(n2nnc(-c3ccc(C)c(NC(=O)c4cnn5ccccc45)c3)n2)C1` [Example 185, N-(5-(2-(1-((2-(2-methoxyethoxy)ethyl)sulfonyl)azetidin-3-yl)-2H-tetrazol-5-yl)-2-methylphenyl)pyrazolo[1,5-a]pyridine-3-carboxamide] yielded a half-inhibitory concentration (IC50) of 161 nM.

On to `CCn1nnc(-c2cc(NC(=O)c3cnn4ccc(-c5cn(C[C@H](O)COCCOC)nc5C)cc34)c(Cl)cc2F)n1` [Example 283, (S)—N-(2-chloro-5-(2-ethyl-2H-tetrazol-5-yl)-4-fluorophenyl)-5-(1-(2-hydroxy-3-(2-methoxyethoxy)propyl)-3-methyl-1H-pyrazol-4-yl)pyrazolo[1,5-a]pyridine-3-carboxamide], for which the half-inhibitory concentration (IC50) was 0.7 nM.

As for `COC[C@@H](O)Cn1ncc(-c2ccn3ncc(C(=O)Nc4cc(-c5nnn(C6CC6)n5)c(C)cc4Cl)c3c2)c1C` [Example 262, (S)-N-(2-chloro-5-(2-cyclopropyl-2H-tetrazol-5-yl)-4-methylphenyl)-5-(1-(2-hydroxy-3-methoxypropyl)-5-methyl-1H-pyrazol-4-yl)pyrazolo[1,5-a]pyridine-3-carboxamide], half-maximal inhibition (IC50) required 1.1 nM.

`[2H]C([2H])([2H])N1CCN(c2ccn3ncc(C(=O)Nc4cc(-c5nnn(C6CN(C(=O)OC)C6)n5)ccc4C)c3c2)CC1` [Example 72, methyl 3-(5-(4-methyl-3-(5-(4-(methyl-d3)piperazin-1-yl)pyrazolo[1,5-a]pyridine-3-carboxamido)phenyl)-2H-tetrazol-2-yl)azetidine-1-carboxylate]: the half-maximal inhibitory concentration (IC50) was 38.4 nM.

In the case of `Cc1ccc(-c2nnn(C3CN(S(=O)(=O)C4COC4)C3)n2)cc1NC(=O)c1cnn2ccccc12` [Example 183, N-(2-methyl-5-(2-(1-(oxetan-3-ylsulfonyl)azetidin-3-yl)-2H-tetrazol-5-yl)phenyl)pyrazolo[1,5-a]pyridine-3-carboxamide], the IC50 is 45.4 nM. The IC50 values of the last two compounds are within 1.5-fold of each other.

The compound `Cc1ccc(-c2nnn(C3CC3)n2)cc1NC(=O)c1cnn2ccc(-c3cnn([C@@H](C)[C@H](C)O)c3C)cc12` (single isomer, unassigned) [Example 270, N-(5-(2-cyclopropyl-2H-tetrazol-5-yl)-2-methylphenyl)-5-(1-((2S,3S)-3-hydroxybutan-2-yl)-5-methyl-1H-pyrazol-4-yl)pyrazolo[1,5-a]pyridine-3-carboxamide or N-(5-(2-cyclopropyl-2H-tetrazol-5-yl)-2-methylphenyl)-5-(1-((2R,3R)-3-hydroxybutan-2-yl)-5-methyl-1H-pyrazol-4-yl)pyrazolo[1,5-a]pyridine-3-carboxamide] gave a half-inhibitory concentration (IC50) of 0.5 nM.

`Cc1cc(F)c(-c2nnn(C3CC3)n2)cc1NC(=O)c1cnn2ccc(-c3cn(C[C@H](O)C(C)(C)O)nc3C3CC3)cc12` [Example 258, (S)-5-(3-cyclopropyl-1-(2,3-dihydroxy-3-methylbutyl)-1H-pyrazol-4-yl)-N-(5-(2-cyclopropyl-2H-tetrazol-5-yl)-4-fluoro-2-methylphenyl)pyrazolo[1,5-a]pyridine-3-carboxamide]: the half-maximal inhibitory concentration (IC50) came to 0.4 nM.

In turn, `CCCS(=O)(=O)N1CC(n2nnc(-c3ccc(C)c(NC(=O)c4cnn5ccccc45)c3)n2)C1` [Example 174] returned a concentration for half-maximal inhibition (IC50) of 28.5 nM.

Compound `Cc1ccc(-n2nnc(C3CC3F)n2)cc1NC(=O)c1cnn2ccc(-c3cnn(CC(C)(C)O)c3)cc12` (centres unmarked) [Example 222, N-(5-(5-(2-fluorocyclopropyl)-2H-tetrazol-2-yl)-2-methylphenyl)-5-(1-(2-hydroxy-2-methylpropyl)-1H-pyrazol-4-yl)pyrazolo[1,5-a]pyridine-3-carboxamide] gave an IC50 of 2.7 nM.

In turn, `CCOC(=O)N1CC(n2nnc(-c3ccc(C)c(NC(=O)c4cnn5ccc(N6CCN(C)CC6)cc45)c3)n2)C1` [Example 76, ethyl 3-(5-(4-methyl-3-(5-(4-methylpiperazin-1-yl)pyrazolo[1,5-a]pyridine-3-carboxamido)phenyl)-2H-tetrazol-2-yl)azetidine-1-carboxylate] came in with an IC50 of 55.6 nM.

The compound `Cc1cc(F)c(-c2nnn(C3CC3)n2)cc1NC(=O)c1cnn2cc(F)c(-c3cn(CC(C)(C)O)nc3C)cc12` [Example 247, N-(5-(2-cyclopropyl-2H-tetrazol-5-yl)-4-fluoro-2-methylphenyl)-6-fluoro-5-(1-(2-hydroxy-2-methylpropyl)-3-methyl-1H-pyrazol-4-yl)pyrazolo[1,5-a]pyridine-3-carboxamide] returned a half-inhibitory concentration (IC50) of 0.5 nM.

The compound `COCCNc1ccn2ncc(C(=O)Nc3cc(-c4nnn(C)n4)ccc3C)c2c1` [Example 87, 5-((2-methoxyethyl)amino)-N-(2-methyl-5-(2-methyl-2H-tetrazol-5-yl)phenyl)pyrazolo[1,5-a]pyridine-3-carboxamide] yielded a half-maximal inhibitory concentration (IC50) of 34.5 nM.

On to `Cc1ccc(-c2nnn(CCOC3CCC3)n2)cc1NC(=O)c1cnn2ccccc12` [Example 12, N-(5-(2-(2-cyclobutoxyethyl)-2H-tetrazol-5-yl)-2-methylphenyl)pyrazolo[1,5-a]pyridine-3-carboxamide], for which the IC50 was 2.4 nM.

Compound `COC(=O)N1CC(n2nnc(-c3ccc(C)c(NC(=O)c4cnn5ccc(OCCO)cc45)c3)n2)C1` [Example 199, methyl 3-(5-(3-(5-(2-hydroxyethoxy)pyrazolo[1,5-a]pyridine-3-carboxamido)-4-methylphenyl)-2H-tetrazol-2-yl)azetidine-1-carboxylate] returned an IC50 of 29.6 nM.

In turn, `COC[C@H](O)Cn1cc(-c2ccn3ncc(C(=O)Nc4cc(-c5nnn(C6CC6)n5)c(F)cc4Cl)c3c2)c(C)n1` [Example 279, (R)—N-(2-chloro-5-(2-cyclopropyl-2H-tetrazol-5-yl)-4-fluorophenyl)-5-(1-(2-hydroxy-3-methoxypropyl)-3-methyl-1H-pyrazol-4-yl)pyrazolo[1,5-a]pyridine-3-carboxamide] yielded an IC50 of 0.6 nM.

`Cc1ccc(-c2nnn(C)n2)cc1NC(=O)c1cnn2ccc(-c3cn(CCO)nc3C)cc12` [Example 228, 5-(1-(2-hydroxyethyl)-3-methyl-1H-pyrazol-4-yl)-N-(2-methyl-5-(2-methyl-2H-tetrazol-5-yl)phenyl)pyrazolo[1,5-a]pyridine-3-carboxamide] registered an IC50 of 1.5 nM.

With `Cc1ccc(-c2nnn(C3CC3)n2)cc1NC(=O)c1cnn2ccc(-c3cn([C@H](C)[C@H](C)O)nc3C)cc12` (single isomer, unassigned) [Example 269, N-(5-(2-cyclopropyl-2H-tetrazol-5-yl)-2-methylphenyl)-5-(1-((2R,3S)-3-hydroxybutan-2-yl)-3-methyl-1H-pyrazol-4-yl)pyrazolo[1,5-a]pyridine-3-carboxamide or N-(5-(2-cyclopropyl-2H-tetrazol-5-yl)-2-methylphenyl)-5-(1-((2S,3R)-3-hydroxybutan-2-yl)-3-methyl-1H-pyrazol-4-yl)pyrazolo[1,5-a]pyridine-3-carboxamide], the IC50 is 0.3 nM.

Turning to `Cc1cc(Cl)c(-c2nnn(C3CC3)n2)cc1NC(=O)c1cnn2ccc(-c3cnn(CC(C)(C)O)c3)cc12` [Example 226, N-(4-chloro-5-(2-cyclopropyl-2H-tetrazol-5-yl)-2-methylphenyl)-5-(1-(2-hydroxy-2-methylpropyl)-1H-pyrazol-4-yl)pyrazolo[1,5-a]pyridine-3-carboxamide], half-maximal inhibition (IC50) was put at 0.5 nM.

For `Cc1cc(C)c(-c2nnn(CCC(C)(O)C(F)(F)F)n2)cc1NC(=O)c1cnn2ccccc12` (centres unmarked) [Example 36, N-(2,4-dimethyl-5-(2-(4,4,4-trifluoro-3-hydroxy-3-methylbutyl)-2H-tetrazol-5-yl)phenyl)pyrazolo[1,5-a]pyridine-3-carboxamide], the IC50 was 8.5 nM.

Compound `Cc1ccc(-c2nnn(CC3CC3)n2)cc1NC(=O)c1cnn2ccccc12` [Example 7, N-(5-(2-(cyclopropylmethyl)-2H-tetrazol-5-yl)-2-methylphenyl)pyrazolo[1,5-a]pyridine-3-carboxamide] gave a concentration for half-maximal inhibition (IC50) of 13.6 nM.

In turn, `Cc1ccc(-c2nnn(C3CN(S(=O)(=O)CCOCC(F)F)C3)n2)cc1NC(=O)c1cnn2ccccc12` [Example 176, N-(5-(2-(1-((2-(2,2-difluoroethoxy)ethyl)sulfonyl)azetidin-3-yl)-2H-tetrazol-5-yl)-2-methylphenyl)pyrazolo[1,5-a]pyridine-3-carboxamide] had a 50% inhibitory concentration (IC50) of 47.9 nM.

As for `COCCNc1ccc2c(C(=O)Nc3cc(-c4nnn(C5CN(C(=O)OC)C5)n4)ccc3Cl)cnn2c1` [Example 164, Methyl 3-(5-(4-chloro-3-(6-((2-methoxyethyl)amino)pyrazolo[1,5-a]pyridine-3-carboxamido)phenyl)-2H-tetrazol-2-yl)azetidine-1-carboxylate], the half-inhibitory concentration (IC50) turned out to be 8 nM.

Turning to `Cc1nnn(-c2ccc(C)c(NC(=O)c3cnn4ccc(Nc5cn[nH]c5)cc34)c2)n1` [Example 231, 5-((1H-pyrazol-4-yl)amino)-N-(2-methyl-5-(5-methyl-2H-tetrazol-2-yl)phenyl)pyrazolo[1,5-a]pyridine-3-carboxamide], half-maximal inhibition (IC50) required 3.6 nM.
